Assay results from patent publication US5135943A, “1H-imidazole derivative compounds and pharmaceutical compositions containing the same” (priority 1984, dated 1992).
Values after ≈ are worked out from the molar mass of the structure shown. Read-outs that look alike come from different tables or passages of the source.

Experiments:
Candida albicans [1] = test: MIC by two-fold dilution, Candida albicans; format: cell-based
Text: (§1) A number of compounds with antimycotic and/or fungicidal properties, which are useful in pharmaceutical compositions, are currently known. These include the commercially successful Miconazole having the formula II [drawing 2] Miconazole has a structure chemically similar to the 1H-imidazole derivative compounds of the invention. Miconazole is effective against a number of yeasts, dermatophytes and fungi. This effectiveness can be measured by culturing these microorganisms in vitro and applying a preparation containing the antimycotic compound, Miconazole. The results of this type of in vitro experiment is expressed in terms of the Minimum Inhibitory Concentration (MIC), i.e. the minimum concentration which inhibits the growth of the microorganism. For example, the MIC for Miconazole against a particular Candida albicans strain is found to be 10.7 micrograms/milliliter. The effectiveness of Miconazole as an antimycotic compound is measured in vivo by applying a suspension containing the drug to the skin of a number of animals and measuring the proportion of animals on which growth of the microorganism is inhibited as a function of time. Typically, after 25 days, about 1/4 of the animals were cured, when treated with a cream containing 2 % by weight Miconazole. Of course, any pharmaceutical preparation for treating a disease in a human must satisfy certain toxicity requirements. […] Toxicity tests have been performed on the IH-imidazole derivative compounds of the invention and on Miconazole and other known compounds having antimycotic properties. In toxicity tests the LD50 (the dose at which 50 % mortality occurs) is measured.
(§2) Minimum Inhibitory Concentrations (MICS) of Sertaconazole and Miconazole against 107 yeasts, 47 dermatophytes and 4 fungi were determined by a two-fold dilution method.

Candida tropicalis = test: MIC by two-fold dilution, Candida tropicalis; format: cell-based; conditions: read-out: Minimum Inhibitory Concentration
Method: as §2

Torulopsis glabrata = test: MIC by two-fold dilution, Torulopsis glabrata; format: cell-based; conditions: Nakaseomyces glabratus; 10 strains; read-out: Minimum Inhibitory Concentration
Method: as §2

Candida s.p. = test: MIC by two-fold dilution, Candida s.p.; format: cell-based; conditions: Candida; 15 strains; read-out: Minimum Inhibitory Concentration
Method: as §2

Trichophyton rubrus = test: MIC by two-fold dilution, Trichophyton rubrus; format: cell-based; conditions: 10 strains, read-out: Minimum Inhibitory Concentration
Method: as §2

[2] = tested on: Trichophyton menta-grophytes; test: MIC by two-fold dilution, Trichophyton mentagrophytes; format: cell-based; conditions: 30 strains, read-out: Minimum Inhibitory Concentration
Method: as §2

Microsporum canis = test: MIC by two-fold dilution, Microsporum canis; format: cell-based; conditions: 4 strains, read-out: Minimum Inhibitory Concentration
Method: as §2

Dermatophytes, Others = test: MIC by two-fold dilution, other dermatophytes; format: cell-based; conditions: 3 strains; read-out: Minimum Inhibitory Concentration
Method: as §2

[3] = tested on: Scopulariopsis brevi-caulis; test: MIC by two-fold dilution, Scopulariopsis brevicaulis; format: cell-based; conditions: Scopulariopsis; 4 strains; read-out: Minimum Inhibitory Concentration
Method: as §2

Gram-positive germs = test: MIC by two-fold dilution, Gram-positive germs; format: cell-based; conditions: 21 strains; read-out: Minimum Inhibitory Concentration
[4] = tested on: Trichophyton mcntagrophytes; test: Dermal infection in albino female guinea pigs by Trichophyton mentagrophytes; format: in vivo, guinea pig; conditions: for % microbiological healing / Negative Cultures to Total Cultures: 2% cream
Text: as §1
Dermal infection in albino female guinea pigs by Trichophyton mcntagrophytes has been studied. Animals were distributed in three groups: a) a control group of infected untreated animals; b) a scrtaconazole group of infected and treated animals; and c) a miconazole group of infected and treated animals. Animals were depleted and a 0.4 ml suspension of the microorganism was applied on the depleted area. Treatment with each of the test drugs was made by application of 1 g of 2% cream on the depleted area on the 4th, 5th and 6th day after infection.

Candida albicans [5] = test: Vaginal infection by Candida albicans in female mice; format: in vivo; conditions: seven days after infection
Text: Besides the above in vivo experiments vaginal infection by Candida albicans was studied in female mice. Standard methods were used. […] Similar results were found in experiments where repeated dosages of active compound were used after infection. These in vivo results confirmed the surprising speed of action of Sertaconazole in comparison to the prior art compounds.

[6] = Acute toxicity (LD50) in mouse, three administration routes; conditions: in vivo
Text: as §1
(§3) Toxicity of Sertaconazole, Microazole and Martin's compounds 1, 2 and 3, as shown below, has been tested by standard methods. Both acute toxicity, subacute toxicity and chronic toxicity were studied
(§4) Oral, intraperitoneal and subcutaneous acute toxicity of sertaconazole and miconazole have been investigated. LD50 in mouse and rat, male and female, were measured.

[7] = Acute toxicity (LD50) in rat, three administration routes; conditions: in vivo, males
Method: as §3, §4

rats = test: Prolonged subacute toxicity in rats; format: in vivo, rat; conditions: p.o.
Method: (§5) In a study of prolonged subacute toxicity of Miconazole in rats, among other effects, significant hepatomegalias in females with a dosage of under 30 mg/kg p.o. and in males with a dosage of under 60 mg/kg p.o. were observed.

Chronic toxicity in rats = format: in vivo, rat; conditions: rat, in vivo; 100 mg/kg or more dosage
[8] = Safe dosage based on the toxicity findings; conditions: rat, in vivo
Method: as §5
Based on these finds a safe dosage for Miconazole is about 10 mg/kg, while a safe dosage for Sertaconzole is about 150 mg/kg, i.e about 15 times higher.

cutaneous mycosis = test: Randomized double blind clinical trials, cutaneous mycosis; conditions: 2 % cream (nitrate salts)
Method: (§6) Human clinical trials were performed with Sertaconazole nitrate and Miconazole nitrate acid addition salts. Randomized double blind trials were carried out with 502 patients suffering from cutaneous mycosis as confirmed by microscopic examination and microbiological culture. 247 patients were treated with 2 % Sertaconazole cream and the remaining 255 patients were treated with 2 % Miconazole cream. All patients received scheduled treatment for 28 days and were followed up for an additional 28 days for possible relapses.

Trichophyton rubrum = test: Randomized double blind clinical trials, Trichophyton rubrum infection; format: in vivo, human; conditions: 2 % cream (nitrate salts), 28 days treatment
Method: as §6

C. albicans 14 = test: MIC, comparative in vitro testing against Martin compounds; format: cell-based; conditions: Candida albicans, 14, 48 h, Casitone medium, reading time 48 h; SZ vs M4
Method: (§7) Minimum Inhibitory Concentrations (MICS) of Sertaconazole were also measured in comparison to four of the compounds described in the Martin Patent, including a compound, referred to herein as Martin Compound 1, which has the same structure as Sertaconazole, expect that the sulfur in the benzothiophene ring is replaced by an oxygen.
(§8) The results of comparative in vitro testing of Sertaconazole and these four Martin compounds are shown in the following Table II against 16 microorganisms. The reading time is the time interval from the time of inoculation to the time of measurement.

C. albicans 15 = test: as above; format: cell-based; conditions: Candida albicans, 15, 48 h, Casitone medium, reading time 48 h; SZ vs M4
Method: as §7, §8

C. albicans 31 = test: as above; format: cell-based; conditions: Candida albicans, 31; YNB medium, reading time 48 h; SZ vs M4; read-out: MIC
Method: as §7, §8

C. albicans 32 = test: as above; format: cell-based; conditions: Candida albicans, 32; YNB medium, reading time 48 h; SZ vs M4; read-out: MIC
Method: as §7, §8

C. albicans ATCC E-10231 = test: as above; format: cell-based; conditions: Candida albicans, ATCCE10231; Casitone medium, reading time 48 h; SZ vs M4; read-out: MIC
Method: as §7, §8

C. guillermondii = test: as above; format: cell-based; conditions: 48 h, reading time 48 h, SZ vs M4, read-out: MIC
Method: as §7, §8

C. krusei 24 = test: as above; format: cell-based; conditions: Pichia kudriavzevii, 24, 48 h, reading time 48 h, SZ vs M4, read-out: MIC
Method: as §7, §8

C. parapsilosis 19 = test: as above; format: cell-based; conditions: 19, 48 h, reading time 48 h, SZ vs M4
Method: as §7, §8

C. pseudotropicalis 21 = test: as above; format: cell-based; conditions: Kluyveromyces marxianus, 21; Sabouraud medium, reading time 48 h; SZ vs M4; read-out: MIC
Method: as §7, §8

C. stellatoidea 36232 = test: as above; format: cell-based; conditions: Candida albicans, 36232, 48 h, reading time 48 h, SZ vs M4
Method: as §7, §8

C. tropicalis 25 = test: as above; format: cell-based; conditions: Candida tropicalis, 25, 48 h, YNB medium, reading time 48 h; SZ vs M4
Method: as §7, §8

16 microorganisms = test: Geometric mean of all MIC measurements, comparative in vitro testing; format: cell-based; conditions: 48 h, SZ vs M4, reading time 48 h; read-out: Geometric means of MIC
Method: as §7, §8

[9] = Acute toxicity in Swiss mice i.p.; conditions: mouse, in vivo, ip
Text: Such signs included convulsions and Straub tail(vertical righting of the tail).

Clc1ccc(COC(Cn2ccnc2)c2ccc(Cl)cc2Cl)c(Cl)c1 (stereo not shown) [Miconazole, reference compound]
MIC (Candida albicans [1]; Candida albicans, 52 strains, read-out: Minimum Inhibitory Concentration): 10.7 µg/mL (≈ 25.7 µM) | MIC (Candida albicans [1]; a particular Candida albicans strain, read-out: MIC): 10.7 µg/mL (≈ 25.7 µM) | MIC (Candida tropicalis): 5.6 µg/mL (≈ 13.5 µM) | MIC (Torulopsis glabrata): 1.1 µg/mL (≈ 2.64 µM) | MIC (Candida s.p.): 0.95 µg/mL (≈ 2.28 µM) | MIC (Trichophyton rubrus): 0.3 µg/mL (≈ 0.721 µM) | MIC [2]: 2.8 µg/mL (≈ 6.73 µM) | MIC (Microsporum canis): 2 µg/mL (≈ 4.81 µM) | MIC (Dermatophytes, Others): 4 µg/mL (≈ 9.61 µM) | MIC [3]: 32 µg/mL (≈ 76.9 µM) | MIC (Gram-positive germs): 0.88 µg/mL (≈ 2.11 µM) | % microbiological healing ([4]; 18 days postinfection): 6% | Negative Cultures to Total Cultures ([4]; 18 days postinfection): 3/48 | % microbiological healing ([4]; 25 days postinfection): 28% | Negative Cultures to Total Cultures ([4]; 25 days postinfection): 13/48 | % microbiological healing ([4]; 32 days postinfection): 44% | Negative Cultures to Total Cultures ([4]; 32 days postinfection): 21/48 | proportion of animals cured ([4]; after 25 days, cream containing 2 % by weight): about 1/4 | animals healed (Candida albicans [5]): 12.5% | LD50 ([6]; ip, intraperitoneal): ~600 mg/kg | LD50 ([6]; ip, intraperitoneal, males): 662 mg/kg | LD50 ([6]; po): ~2500 mg/kg | LD50 ([6]; po, males): 2560 mg/kg | LD50 ([6]; sc, subcutaneous): > 5000 mg/kg | LD50 ([6]; sc, subcutaneous, males): > 5000 mg/kg | LD50 ([7]; ip, intraperitoneal): 1180 mg/kg | LD50 ([7]; oral): 920 mg/kg | LD50 ([7]; sc, subcutaneous): > 5000 mg/kg | dosage with significant hepatomegalias (rats; females): under 30 mg/kg | dosage with significant hepatomegalias (rats; males): under 60 mg/kg | mortality (Chronic toxicity in rats): 32% | NOAEL [8]: ~10 mg/kg | cases of contact dermatitis (cutaneous mycosis): 5 cases | effectiveness against Trichophyton rubrum (Trichophyton rubrum): 79%

Clc1ccc(C(Cn2ccnc2)OCc2coc3cc(Cl)cc(Cl)c23)c(Cl)c1 (stereo not shown) [Martin compound 4, reference compound]
MIC (C. albicans 14): 0.5 µg/mL (≈ 1.1 µM) | MIC (C. albicans 15): 0.03 µg/mL (≈ 0.0658 µM) | MIC (C. albicans 31): 8 µg/mL (≈ 17.5 µM) | MIC (C. albicans 32): 8 µg/mL (≈ 17.5 µM) | MIC (C. albicans ATCC E-10231): 0.5 µg/mL (≈ 1.1 µM) | MIC (C. guillermondii; Casitone medium): 0.5 µg/mL (≈ 1.1 µM) | MIC (C. guillermondii; YNB medium): 0.5 µg/mL (≈ 1.1 µM) | MIC (C. krusei 24; Casitone medium): 0.5 µg/mL (≈ 1.1 µM) | MIC (C. krusei 24; YNB medium): 0.5 µg/mL (≈ 1.1 µM) | MIC (C. parapsilosis 19; Sabouraud medium): 0.5 µg/mL (≈ 1.1 µM) | MIC (C. parapsilosis 19; YNB medium): 0.5 µg/mL (≈ 1.1 µM) | MIC (C. pseudotropicalis 21): 0.03 µg/mL (≈ 0.0658 µM) | MIC (C. stellatoidea 36232; Casitone medium): 0.06 µg/mL (≈ 0.132 µM) | MIC (C. stellatoidea 36232; Sabouraud medium): 0.5 µg/mL (≈ 1.1 µM) | MIC (C. stellatoidea 36232; YNB medium): 0.5 µg/mL (≈ 1.1 µM) | MIC (C. tropicalis 25): 8 µg/mL (≈ 17.5 µM) | MIC (16 microorganisms): 0.518 µg/mL (≈ 1.14 µM) | LD50 [9]: < 1000 mg/kg
